Reference: publication PMC7369637, “Inhibition of Resistance-Refractory P. falciparum Kinase PKG Delivers Prophylactic, Blood Stage, and Transmission-Blocking Antiplasmodial Activity” (Cell Chemical Biology, 2020)
Values joined by “and” are separate entries in the source; they are usually repeats but may differ in a detail not shown here. Identical values can stand only once.

Key:
[1] = target: PP1 cKD line; test: Compound susceptibility assay using cKD lines (72 h, Renilla luciferase); format: cell-based, Plasmodium falciparum
From the text: (§1) To study the interaction between the compounds and PKG (PF3D7_1436600), AAT (PF3D7_1231400), CDPK1 (PF3D7_0217500), TKL3 (PF3D7_1349300), PP1 (PF3D7_1414400), and URP (PF3D7_0808300), cKD lines were generated by fusing the transcripts with RNA aptamers for translation regulation with the TetR/DOZI system ([Ganesan et al., 2016]). The right homology regions (RHR) of each target gene were amplified by PCR, using the primers listed in Table S1 (A), and along with the left homology regions (LHR) were fused to the re-codonized 3'-end region of the gene. Single guide RNA fragments were synthesized using the BioXP™ 3200 System (SGI-DNA; Table S1 (A)) and were cloned into the pSN054 vector ([Nasamu et al., 2019]) to install the C-terminal epitope tags V5 and 2x-hemagglutinin (HA) followed by a 10x RNA aptamer array and the TetR-DOZI expression cassette. This cassette also contained Blasticidin S-deaminase for selection in the parasites and the reporter gene Renilla luciferase (RLuc). The 3'-end of each target was re-codonized to avoid further modifications of the edited locus in the parasite via removal of the PAM site. Donor vector generation was carried out via Gibson assembly, and the final construct sequence was confirmed by restriction digests and Sanger sequencing.
(§2) Transfection into parasites was carried out by preloading erythrocytes with linearized vectors as described previously ([Deitsch et al., 2001]). Briefly, 50 μg of purified plasmid DNA was mixed with human RBC and subjected to 8 square wave electroporation pulses of 365 V for 1 ms each, separated by 0.1 s in a 0.2 cm cuvette. The plasmid DNA preloaded cells were inoculated with NF54 parasites expressing Cas9 and T7 RNA polymerase, maintained in 500 nM anhydrotetracycline (aTc, Sigma-Aldrich 37919), and drug selection with 2.5 μg/mL of Blasticidin (RPI Corp B12150-0.1) was initiated four days after transfection. Emergence of transfectants was monitored via Giemsa smears and RLuc measurements.
(§3) Synchronized ring-stage cKD parasites in varying aTc concentrations (high = 50 nM, intermediate = 1.5 nM, low = 1 nM, and no aTc) were distributed into the drug plate. No-drug treatment and treatment with a lethal dose of chloroquine (200 nM) served as reference controls.

[2] = target: URP cKD line; test: as above; format: cell-based, Plasmodium falciparum
From the text: as §1, §2, §3

[3] = target: PKG cKD line; test: as above; format: cell-based, Plasmodium falciparum; details: PKG cKD line
From the text: as §1, §2, §3

[4] = target: CDPK1 cKD line; test: as above; format: cell-based, Plasmodium falciparum; details: CDPK1 cKD line
From the text: as §1, §2, §3

[5] = target: AAT cKD line; test: as above; format: cell-based, Plasmodium falciparum; details: AAT cKD line
From the text: as §1, §2, §3

[6] = target: TKL3 cKD line; test: as above; format: cell-based, Plasmodium falciparum; details: TKL3 cKD line
From the text: as §1, §2, §3

[7] = system: recombinant TKL3 kinase domain; test: Radioactive in vitro kinase assay with recombinant TKL3 kinase domain; format: biochemical, Plasmodium falciparum; details: 20 μM compound
Description: Recombinant proteins were expressed in E. coli as previously described ([Abdi et al., 2010]). […] The cultures were then cooled to 20°C followed by induction of protein expression with 0.5 mM IPTG and further incubation at 20°C, 200 rpm for 16 h. Cultures were harvested by centrifugation at 4000g, 4°C for 10 min. Bacterial pellets were washed once in 1× PBS and were stored at −80°C. Cell pellets were resuspended in ice-cold Lysis Buffer (50 mM sodium phosphate, pH 8.0, 400 mM NaCl, 5 % (w/v) glycerol, 0.1 % (v/v) Triton X-100, 20 mM imidazole, 2 mM β-mercaptoethanol, 1× Roche protease inhibitor cocktail EDTA-free, 1 mg/ml lysozyme). Cells were disrupted by sonication. Protein was bound on a HisTrap HP column and eluted with a linear gradient of increasing imidazole concentrations. The peak fractions as determined by A280 trace were pooled together and further purified by size exclusion chromatography on a S200 gel filtration column equilibrated in 25 mM Tris pH 7.5, 100 mM NaCl, 5 % (w/v) glycerol, 1 mM DTT. Protein was pooled and concentrated. Final concentration was determined using a Bradford assay with a BSA protein standard.
Kinase assays containing 3 μg of recombinant kinase (WT or mutant) were performed in kinase assay buffer (25 mM Hepes, pH 7.5, 2 mM MnCl2, 10 mM β-glycerophosphate, 10 mM NaF, 25 μM ATP (containing 5 μCi [γ-^32P]-ATP-3000 mCi/mmol (PerkinElmer)), 5 μg substrate myelin basic protein (MBP) and ± 20 μM inhibitor) in a final reaction volume of 20 μl and incubated at 30°C for 30 min. Reactions were stopped by the addition of 5× Laemmli sample buffer and heated to 98°C for 5 min. Proteins were resolved by 4-12 % SDS-PAGE and stained in Coomassie Brilliant Blue. Kinase activity was detected by phosphorimaging. Imaging was performed on a Typhoon 5 Biomolecular imager (GE Healthcare Life Sciences).

[8] = system: Pf Dd2-B2 ABS parasites; test: 72-h asexual blood stage (ABS) growth inhibition assay, Dd2-B2; format: cell-based, Plasmodium falciparum; details: Dd2-B2 wild-type, 72 h; read-out: Mean IC50, 72 h ABS activity
Description: (§4) Synchronicity was achieved using three rounds of sorbitol treatment on early rings, spaced 48 h apart, followed by magnetic purification of segmented schizonts following the final sorbitol treatment. Parasites were highly synchronous to within a 3 h window of development. Assays were repeated on at least three independent occasions (each with technical duplicates) and statistical significance was assessed using Mann Whitney U tests.

[9] = system: sel. Dd2-B2 TKL3T1268R; test: 72-h ABS assay, MMV030084-selected line; format: cell-based, Plasmodium falciparum
Description: as §4
The resulting MMV030084-resistant parasites were cloned by limiting dilution ([Baker et al., 2017]) to obtain genetically homogenous cultures for further phenotyping and whole-genome sequencing. A second round of […]. […] Drug susceptibility of resistant lines was assessed using a 72 h ABS assay as described above, and a Mann Whitney U test was applied to assess statistically significant differences.

[10] = system: B-raf kinase; details: ref Gamo et al., 2010; cited from earlier work
[11] = target: T1, cGMP-dependent protein kinase (PKG) (PF3D7_1436600) (Plasmodium falciparum, UniProt Q8I719); test: Competitive chemoproteomics in Pf lysates (Kinobeads / bead-immobilized compound); format: binding; details: lysates exposed to 40 μM of the same compound vs vehicle
T1 construct: The beads were incubated at 4°C for 1 h with either 0.1 ml (0.3 mg) Pf blood stage extract; endogenous in cells; host or cells: P. falciparum asexual blood-stage parasites (trophozoite stage), saponin-freed and lysed

[12] = target: putative amino acid transporter (AAT) (PF3D7_1231400) (Plasmodium falciparum, UniProt Q8I5A6); test: as above; format: binding; details: lysates exposed to 40 μM of the same compound vs vehicle
Description: (§5) Pf protein extracts were prepared as described elsewhere ([Paquet et al., 2017]). Parasite cultures at the trophozoite stage were harvested, washed twice in RPMI 1640 medium (Gibco), and lysed by the addition of saponin to a final concentration of 0.1% for 5 min at room temperature. Free parasites were sedimented by centrifugation (3500 rpm for 10 min), washed three times with phosphate-buffered saline, and stored at −80°C. Parasites were resuspended in cell lysis buffer (50 mM tris-HCl (pH 7.5), 5% glycerol, 1.5 mM MgCl2, […], 1 mM […], 25 mM sodium fluoride, 0.8% NP-40, EDTA-free protease inhibitor cocktail tablets (Roche Diagnostics), and 1 mM DTT) and disrupted by sonication (Sonics Vibra-Cell) using two 30-s cycles on ice at half-amplitude. After centrifugation (140,000g for 1 h at 4°C), soluble proteins were recovered from the supernatants, and protein concentrations of each sample were estimated using the Lowry-based DC assay (Bio-Rad). Samples were stored at −80°C until use.
(§6) Kinobeads were prepared by immobilizing Bis-(III) indolyl-maleimide, purvalanol B, staurosporine and CZC8004, and the analogs of PD173955, sunitinib and vandetanib on NHS-activated Sepharose 4 beads (Amersham) ([Bantscheff et al., 2007]). […] The chemoproteomic affinity-capturing experiments were performed as previously described ([Bantscheff et al., 2011]). Briefly, beads were washed and equilibrated in lysis buffer (50 mM Tris-HCl, pH 7.4, 0.4 % Igepal-CA630, 1.5 mM MgCl2, 5 % Glycerol, 150 mM NaCl, 25 mM NaF, 1 mM Na3VO4, 1 mM DTT, and one cOmplete EDTA-free protease inhibitor tablet (Roche) per 25 mL). The beads were incubated at 4°C for 1 h with either 0.1 ml (0.3 mg) Pf blood stage extract or 0.5 mL (2.5 mg) human cell/tissue protein extract (a mixture of HEK-293, K-562, Hep G2 , and placental cells), which was pre-incubated with compound or DMSO (vehicle control). 10 samples were measured in parallel (TMT 10-plex ([Werner et al., 2014])) to generate values for the affinity of the beads to the bound proteins (“depletion” values, 4 samples) and to generate IC50 values (6 samples) in a single experiment. Apparent dissociation constants were determined after accounting for protein depletion by the beads ([Bantscheff et al., 2011]). Beads were transferred to Filter plates (Durapore PVDF membrane, Merck Millipore), washed with lysis buffer, and eluted with SDS sample buffer.
(§7) Proteins were digested according to a modified single pot solid-phase sample preparation (SP3) protocol ([Hughes et al., 2014]). Peptides were labeled with isobaric mass tags (Thermo Fisher Scientific, Waltham, MA) using 10-plex TMT reagents, enabling relative quantification of 10 conditions in a single experiment ([Werner et al., 2014]). The labeling reactions and LC-MS/MS measurements using Q Exactive Orbitrap or Orbitrap Fusion Lumos mass spectrometers (Thermo Fisher Scientific) were performed as described elsewhere ([Sridharan et al., 2019]). Mascot 2.4 (Matrix Science, Boston, MA) was used for protein identification by using a 10 parts per million mass tolerance for peptide precursors and 20 mD (HCD) mass tolerance for fragment ions. To create the fasta file for mascot searching, all proteins corresponding to the taxonomy ‘Plasmodium falciparum (isolate 3D7)’ were downloaded from Uniprot (release 20170621) and supplemented with common contaminant protein sequences of bovine serum albumin, porcine trypsin and mouse, rat, sheep and dog keratins. To assess the false discovery rate (FDR), “decoy” proteins (reverse of all protein sequences) were created and added to the database, resulting in a database containing a total of 14266 protein sequences, with 50% forward and 50% reverse. For peptide and protein identification of human proteins see ([Sridharan et al., 2019]). […]

[13] = target: T2, calcium-dependent protein kinase 1 (CDPK1) (PF3D7_0217500) (Plasmodium falciparum, UniProt P62344); test: as above; format: binding; details: lysates exposed to 40 μM of the same compound vs vehicle
T2 construct: endogenous in cells; host or cells: P. falciparum asexual blood-stage parasites (trophozoite stage)
Description: as §5, §6, §7

T1 sequence (Q8I719 whole entry): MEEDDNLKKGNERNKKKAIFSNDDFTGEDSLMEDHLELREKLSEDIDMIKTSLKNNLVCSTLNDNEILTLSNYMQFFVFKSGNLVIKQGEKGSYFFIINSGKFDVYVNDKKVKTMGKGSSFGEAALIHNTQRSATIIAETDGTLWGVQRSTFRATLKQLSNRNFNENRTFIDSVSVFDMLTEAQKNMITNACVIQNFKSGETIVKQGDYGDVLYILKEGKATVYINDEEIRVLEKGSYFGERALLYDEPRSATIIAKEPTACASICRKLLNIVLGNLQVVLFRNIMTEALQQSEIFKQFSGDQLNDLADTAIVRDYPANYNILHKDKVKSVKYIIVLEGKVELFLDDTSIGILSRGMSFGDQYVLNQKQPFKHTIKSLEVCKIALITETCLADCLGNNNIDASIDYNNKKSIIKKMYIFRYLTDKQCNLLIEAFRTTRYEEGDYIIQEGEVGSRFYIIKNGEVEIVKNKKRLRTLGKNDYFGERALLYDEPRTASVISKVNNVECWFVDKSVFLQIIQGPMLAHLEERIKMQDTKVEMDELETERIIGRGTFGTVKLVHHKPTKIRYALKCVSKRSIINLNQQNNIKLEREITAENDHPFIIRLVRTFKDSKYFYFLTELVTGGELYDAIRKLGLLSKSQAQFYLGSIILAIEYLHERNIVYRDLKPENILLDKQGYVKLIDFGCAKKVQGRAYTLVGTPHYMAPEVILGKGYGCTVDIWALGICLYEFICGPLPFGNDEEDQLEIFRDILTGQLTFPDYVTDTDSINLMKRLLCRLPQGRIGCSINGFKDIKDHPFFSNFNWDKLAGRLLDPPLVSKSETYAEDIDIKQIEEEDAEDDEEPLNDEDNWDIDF
T2 sequence (P62344 whole entry): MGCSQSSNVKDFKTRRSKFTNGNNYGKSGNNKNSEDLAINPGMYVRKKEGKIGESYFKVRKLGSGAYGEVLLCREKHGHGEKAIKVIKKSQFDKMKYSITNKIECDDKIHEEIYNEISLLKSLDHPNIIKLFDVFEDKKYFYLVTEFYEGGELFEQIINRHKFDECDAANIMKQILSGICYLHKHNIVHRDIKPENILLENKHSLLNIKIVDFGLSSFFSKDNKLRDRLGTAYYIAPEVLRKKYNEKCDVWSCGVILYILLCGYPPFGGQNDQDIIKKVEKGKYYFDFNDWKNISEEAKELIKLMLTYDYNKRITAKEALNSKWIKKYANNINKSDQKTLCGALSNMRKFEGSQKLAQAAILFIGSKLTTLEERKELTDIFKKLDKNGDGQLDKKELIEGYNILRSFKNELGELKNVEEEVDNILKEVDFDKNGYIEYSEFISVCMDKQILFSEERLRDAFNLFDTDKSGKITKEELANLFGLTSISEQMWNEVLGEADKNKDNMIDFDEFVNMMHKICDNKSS
Sequence of putative amino acid transporter (AAT) (PF3D7_1231400) (Q8I5A6 entry or part of it): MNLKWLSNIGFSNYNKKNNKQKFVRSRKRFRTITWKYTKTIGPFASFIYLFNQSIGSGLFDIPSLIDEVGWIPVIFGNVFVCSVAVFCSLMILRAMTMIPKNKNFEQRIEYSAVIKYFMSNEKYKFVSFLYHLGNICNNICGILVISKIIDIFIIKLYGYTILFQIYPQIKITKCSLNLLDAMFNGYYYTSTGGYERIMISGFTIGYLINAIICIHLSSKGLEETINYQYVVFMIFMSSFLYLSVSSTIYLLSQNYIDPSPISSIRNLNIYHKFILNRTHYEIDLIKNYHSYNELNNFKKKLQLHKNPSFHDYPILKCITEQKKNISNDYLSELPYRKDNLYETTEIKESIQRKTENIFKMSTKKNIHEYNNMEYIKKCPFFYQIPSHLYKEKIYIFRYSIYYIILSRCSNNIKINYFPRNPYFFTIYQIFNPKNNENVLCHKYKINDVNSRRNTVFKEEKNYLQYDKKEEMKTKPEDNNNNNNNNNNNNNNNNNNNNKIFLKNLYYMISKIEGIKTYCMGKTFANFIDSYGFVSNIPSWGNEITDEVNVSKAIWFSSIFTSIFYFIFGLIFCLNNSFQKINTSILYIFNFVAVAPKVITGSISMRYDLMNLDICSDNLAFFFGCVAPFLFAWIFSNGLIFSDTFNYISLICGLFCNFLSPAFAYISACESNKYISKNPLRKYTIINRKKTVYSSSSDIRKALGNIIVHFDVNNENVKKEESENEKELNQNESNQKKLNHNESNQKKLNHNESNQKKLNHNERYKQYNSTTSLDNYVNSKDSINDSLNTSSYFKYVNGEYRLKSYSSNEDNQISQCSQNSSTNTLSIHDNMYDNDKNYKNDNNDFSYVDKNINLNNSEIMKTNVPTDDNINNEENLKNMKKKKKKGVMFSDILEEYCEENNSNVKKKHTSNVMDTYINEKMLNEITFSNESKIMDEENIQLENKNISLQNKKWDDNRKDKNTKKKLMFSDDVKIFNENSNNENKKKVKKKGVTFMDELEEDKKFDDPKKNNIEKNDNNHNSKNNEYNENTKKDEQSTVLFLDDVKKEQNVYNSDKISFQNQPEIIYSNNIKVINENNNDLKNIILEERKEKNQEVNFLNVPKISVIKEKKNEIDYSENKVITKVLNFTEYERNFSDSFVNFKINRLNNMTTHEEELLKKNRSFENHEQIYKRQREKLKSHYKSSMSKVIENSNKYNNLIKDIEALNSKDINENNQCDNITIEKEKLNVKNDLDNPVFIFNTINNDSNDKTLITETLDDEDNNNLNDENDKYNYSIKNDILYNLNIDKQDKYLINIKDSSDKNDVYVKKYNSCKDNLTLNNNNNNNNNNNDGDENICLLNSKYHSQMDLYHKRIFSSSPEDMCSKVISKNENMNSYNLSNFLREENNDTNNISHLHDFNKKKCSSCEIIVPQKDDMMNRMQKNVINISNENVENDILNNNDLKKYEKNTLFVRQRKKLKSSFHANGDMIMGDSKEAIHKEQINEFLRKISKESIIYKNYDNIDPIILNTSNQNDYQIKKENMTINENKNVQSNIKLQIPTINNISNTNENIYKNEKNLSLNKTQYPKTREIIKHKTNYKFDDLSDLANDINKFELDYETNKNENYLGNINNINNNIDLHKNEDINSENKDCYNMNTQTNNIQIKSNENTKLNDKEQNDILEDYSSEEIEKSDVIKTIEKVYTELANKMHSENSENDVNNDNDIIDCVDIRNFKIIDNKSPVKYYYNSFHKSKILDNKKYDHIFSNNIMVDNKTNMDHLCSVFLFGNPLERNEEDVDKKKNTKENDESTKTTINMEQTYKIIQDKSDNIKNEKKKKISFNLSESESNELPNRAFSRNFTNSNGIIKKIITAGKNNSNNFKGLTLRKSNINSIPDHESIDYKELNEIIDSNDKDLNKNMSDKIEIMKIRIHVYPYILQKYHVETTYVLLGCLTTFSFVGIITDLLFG

## CC(C)(CN)c1nc(-c2ccc(Cl)c(O)c2)c(-c2ccnc(N)n2)[nH]1 [MMV030734]
[1]; Control, [aTc] used 50.0
  IC50: 29.5 nM
[1]; KD, [aTc] used 1.5
  IC50: 36.7 nM
[2]; Control, [aTc] used 50.0
  IC50: 34 nM
[2]; KD, [aTc] used 0.0
  IC50: 44.5 nM
[3]; Control, [aTc] used 50.0
  IC50: 20.8 nM
[3]; KD, [aTc] used 1.0
  IC50: 8.4 nM
[4]; Control, [aTc] used 50.0
  IC50: 21.1 nM
[4]; KD, [aTc] used 1.0
  IC50: 18 nM
[5]; Control, [aTc] used 50.0
  IC50: 42.6 nM
[5]; KD, [aTc] used 0.0
  IC50: 18.5 nM
[6]; Control, [aTc] used 50.0
  IC50: 37.5 nM
[6]; KD, [aTc] used 0.0
  IC50: 80.8 nM
[7]
  Reduction in TKL3 kinase activity: no reduction
[8]
  IC50: 65 nM and 65.3 nM
[9]
  IC50: 197 nM

## CC(C)(CNC(=O)[C@@H]1CCCCN1)c1nc(-c2ccc(Cl)c(O)c2)c(-c2ccncc2)[nH]1.Cl [TCMDC-141079]
[7]
  Reduction in TKL3 kinase activity: no reduction
[8]
  IC50: 250 nM
[9]
  IC50: 771 nM

## CC(C)(CN)c1cc(-c2ccc(Cl)c(O)c2)c(-c2ccncc2)o1.Cl [TCMDC-141334]
[8]
  IC50: 277 nM
[10]
  Reported kinase inhibitor activity: B-raf kinase inhibitor
[9]
  IC50: 599 nM

## CC(C)(CN)c1nc(-c2ccc(Br)c(O)c2)c(-c2ccncc2)[nH]1 [TCMDC-140680]
[8]
  IC50: 85.9 nM
[9]
  IC50: 249 nM

## CC(C)(CNC(=O)[C@H]1CCCN1)c1nc(-c2ccc(Cl)c(O)c2)c(-c2ccncc2)[nH]1 [TCMDC-141060]
[8]
  IC50: 180 nM
[9]
  IC50: 590 nM

## Cl.NCC1(c2nc(-c3ccc(Cl)c(O)c3)c(-c3ccncc3)[nH]2)CCCCC1 [TCMDC-141154]
[11]
  PKG pull-down by bead-bound compound: pulled down
[8]
  IC50: 140 nM
[9]
  IC50: 369 nM
[12]
  AAT pull-down by bead-bound compound: pulled down
[13]
  CDPK1 pull-down by bead-bound compound: pulled down

## CN1CCC=C(C(=O)NCC(C)(C)c2nc(-c3ccc(Cl)c(O)c3)c(-c3ccncc3)[nH]2)C1 [TCMDC-140700]
[8]
  IC50: 394 nM
[9]
  IC50: 1190 nM

## CNCC(C)(C)c1nc(-c2ccc(Cl)c(O)c2)c(-c2ccncc2)[nH]1.Cl [TCMDC-140762]
[7]
  Reduction in TKL3 kinase activity: no reduction
[8]
  IC50: 187 nM
[9]
  IC50: 443 nM

## CC(C)(CNC(=O)[C@H]1CCCCN1)c1nc(-c2ccc(Cl)c(O)c2)c(-c2ccncc2)[nH]1 [TCMDC-141070]
[8]
  IC50: 186 nM
[9]
  IC50: 717 nM
